Holding throughout (assay type): cell-based, human
Data set [1] deals with MDA-MB-435 melanoma cell line. As to the kind of experiment: MTT cell cytotoxicity assay, MDA-MB-435. To be noted: Homo sapiens, MDA-MB-435, 72 h, MDA-MB-435 (melanoma; MDA435 in table), 72 h exposure; read-out: Cytotoxicity (IC50s). The protocol: (§1) A panel of colon (HT29, HCT116, COLO205, HCC2998), breast (MCF7, MDA-MB-435), lung (HOP62, HOP92), ovarian (OVCAR3, IGROV1), prostate (DU145, PC3), and head and neck (SCC61, HEP2, SQ20B) human cancer cell lines was purchased from the ATCC (Rockville, Md.) and National Cancer Institute collections. […] All the data generated was the result of three separate experiments performed in duplicate. Cell viability was determined using the MTT assay, which was carried out as described previously (Hansen, 1989). Briefly, cells were seeded in 96-well plates at a density of 2×10^3 cells well^−1. […] The monolayer was suspended in 0.1 ml of DMSO and the absorbance at 560 nm was measured using a microplate reader. Positive and negative controls included wells with untreated cells or medium containing MTT with no cells, respectively. The conversion of yellow water-soluble tetrazolium MTT into purple insoluble formazan is catalyzed by mitochondrial dehydrogenases and is used to estimate the number of viable cells.

In another data set the test system is HOP62 NSCLC cell line. As to the kind of experiment: MTT cell cytotoxicity assay, HOP62. The note with it: Homo sapiens, HOP-62, 72 h, 72 h exposure, read-out: Cytotoxicity (IC50s). On the procedure: as §1
Data set [2] has as its system SCC61 head and neck cancer cell line. As to the kind of experiment: MTT cell cytotoxicity assay, SCC61. To be noted: Homo sapiens, 72 h, 72 h exposure, read-out: Cytotoxicity (IC50s). On the procedure: as §1
The next data set has as its system DU-MTX cells. Kind of data set: Cytotoxicity in methotrexate-adapted DU145 cells. The protocol:
(§2) All the data generated was the result of three separate experiments performed in duplicate. Cell viability was determined using the MTT assay, which was carried out as described previously (Hansen, 1989). Briefly, cells were seeded in 96-well plates at a density of 2×10^3 cells well^−1. Cells were incubated for 120 hours and then 0.4 mg ml^−1 of MTT dye (3-[4,5-dimethylthiazol-2-yl]-2,5-diphenyltetrazolium bromide was added for 4 hours at 37° C. The monolayer was suspended in 0.1 ml of DMSO and the absorbance at 560 nm was measured using a microplate reader. Positive and negative controls included wells with untreated cells or medium containing MTT with no cells, respectively. The conversion of yellow water-soluble tetrazolium MTT into purple insoluble formazan is catalyzed by mitochondrial dehydrogenases and is used to estimate the number of viable cells. The control value corresponding to untreated cells was taken as 100% and the viability of treated samples was expressed as a percentage of the control. IC50 values were determined as concentrations that reduced cell viability by 50%.
(§3) For single agent studies, cells were seeded and allowed to settle for 24 hours prior to treatment with increasing concentrations of 10-propargyl-10-deazaminopterin for 72 h. After incubation, the cells were allowed to recover in compound-free medium for 48 h, prior to determination of growth inhibition using the MTT assay.
To compare the mechanisms of 10-propargyl-10-deazaminopterin and methotrexate resistance, the cell lines DU-MTX and HEP-MTX were developed from parental DU145 and HEP2 cells by exposure to stepwise increasing concentrations of methotrexate.

For data set [3], the system named is DU145 prostate cancer cell line. As to the kind of experiment: MTT cell cytotoxicity assay, DU145. The note with it: Homo sapiens, DU-145, 72 h, naïve/parental, 72 h exposure, read-out: Cytotoxicity (IC50s). On the procedure:
as §1

In data set [4] the test system is OVCAR3 ovarian cancer cell line. As to the kind of experiment: MTT cell cytotoxicity assay, OVCAR3. To be noted: Homo sapiens, OVCAR-3, 72 h, 72 h exposure, read-out: Cytotoxicity (IC50s). The protocol: as §1
Data set [5] concerns IGROV1 ovarian cancer cell line. As to the kind of experiment: MTT cell cytotoxicity assay, IGROV1. To be noted: Homo sapiens, IGROV-1, 72 h, 72 h exposure, read-out: Cytotoxicity (IC50s). The protocol: as §1
The test system of the next data set is HOP92 NSCLC cell line. As to the kind of experiment: MTT cell cytotoxicity assay, HOP92. To be noted: Homo sapiens, HOP-92, 72 h, 72 h exposure, read-out: Cytotoxicity (IC50s). The protocol: as §1
Data set [6] has as its system COLO205 colon cancer cell line. Kind of data set: MTT cell cytotoxicity assay, COLO205. To be noted: Homo sapiens, COLO 205, 72 h, 72 h exposure, read-out: Cytotoxicity (IC50s). The protocol: as §1
Data set [7] has as its system HCC2998 colon cancer cell line. As to the kind of experiment: MTT cell cytotoxicity assay, HCC2998. The note with it: Homo sapiens, HCC 2998, 72 h, 72 h exposure, read-out: Cytotoxicity (IC50s). On the procedure: as §1
For data set [8], the system named is PC3 prostate cancer cell line. As to the kind of experiment: MTT cell cytotoxicity assay, PC3. To be noted: Homo sapiens, 72 h, 72 h exposure, read-out: Cytotoxicity (IC50s). The protocol: as §1
The test system of another data set is HEP-MTX cells. Kind of data set: Cytotoxicity in methotrexate-adapted HEP2 cells. To be noted: methotrexate-adapted HEP2 compared with parental cells. On the procedure: as §2
For single agent studies, cells were seeded and allowed to settle for 24 hours prior to treatment with increasing concentrations of 10-propargyl-10-deazaminopterin for 72 h. […]

Data set [9] concerns MCF7 breast cancer cell line. As to the kind of experiment: MTT cell cytotoxicity assay, MCF7. The note with it: Homo sapiens, MCF7, 72 h, 72 h exposure, read-out: Cytotoxicity (IC50s). The protocol: as §1
For data set [10], the system named is HT29 colon cancer cell line. Kind of data set: MTT cell cytotoxicity assay, HT29. The note with it: Homo sapiens, HT-29, 72 h, 72 h exposure, read-out: Cytotoxicity (IC50s). The protocol:
as §1

In the next data set the test system is DU-PDX cells. As to the kind of experiment: Cytotoxicity in 10-propargyl-10-deazaminopterin-adapted DU145 cells. To be noted: DU-PDX cells; 72 h exposure for pemetrexed and 5-FU. The protocol:
as §2, §3
(§4) To characterize the predictive factors of 10-propargyl-10-deazaminopterin antiproliferative effects, the cell lines DU-PDX and HEP-PDX were developed from parental DU145 and HEP2 cells, respectively, by exposure to stepwise increasing concentrations of 10-propargyl-10-deazaminopterin over a period of 6 months.

In another data set the test system is HEP-PDX cells. Kind of data set: Cytotoxicity in 10-propargyl-10-deazaminopterin-adapted HEP2 cells. To be noted: HEP-PDX cells; 72 h exposure for pemetrexed and 5-FU. On the procedure:
as §2, §3, §4

Data set [11] has as its system SQ20B head and neck cancer cell line. Kind of data set: MTT cell cytotoxicity assay, SQ20B. The note with it: Homo sapiens, SQ20B, 72 h, 72 h exposure, read-out: Cytotoxicity (IC50s). The protocol: as §1
The subject of data set [12] is HCT116 colon cancer cell line. Kind of data set: MTT cell cytotoxicity assay, HCT116. The note with it: Homo sapiens, HCT-116, 72 h, 72 h exposure, read-out: Cytotoxicity (IC50s). The protocol:
as §1

For data set [13], the system named is HEP2 head and neck cancer cell line. Kind of data set: MTT cell cytotoxicity assay, HEP2. The note with it: Homo sapiens, HEp-2, 72 h, 72 h exposure, read-out: Cytotoxicity (IC50s). The protocol: as §1

Entries after “also recorded” stand apart in the source; their conditions may differ.

`CN(Cc1cnc2nc(N)nc(N)c2n1)c1ccc(C(=O)N[C@@H](CCC(=O)O)C(=O)O)cc1` [Methotrexate]: the IC50 in data set [1] was > 350 µM; in the data set on HOP62 NSCLC cell line, 150 nM; in [2], 30 nM; in data set [3] it was 300 nM; in data set [4] it was > 350 µM; in data set [5], 330 nM. The IC50 in the data set on HOP92 NSCLC cell line was 600 nM; in data set [6], 30 µM; in data set [7], > 350 µM; in data set [8] it was 100 nM; in data set [9], 300 µM; in data set [10] it was 220 nM. The IC50 is 260 nM in data set [11], > 350 µM in data set [12] and 250 nM in [13]. Besides, in the data set with DU-MTX cells (DU-MTX versus naïve DU-145), the “increase in IC50 in methotrexate adapted DU-145 cells” value was “approximately 10 fold”. In addition, the “sensitivity of DU-MTX cells (in words)” value in the data set on DU-MTX cells (methotrexate-adapted DU145 compared with parental/naïve cells) is “displayed resistance”. Besides, the “sensitivity of HEP-MTX cells (in words)” value in the data set with HEP-MTX cells is “displayed resistance”. Also, in the data set with DU-PDX cells, the “cross-resistance: cytotoxicity in DU-PDX compared with parental DU145” value is recorded as “partial cross-resistance; also recorded: insensitive”. In addition, in the data set with HEP-PDX cells, the “cross-resistance: cytotoxicity in HEP-PDX compared with parental HEP2” value is “partial cross-resistance”.
